Measurements reported in PubChem BioAssay AID328 (DTP/NCI, 2004).
Values joined by “and” are separate entries in the source; they are usually repeats but may differ in a detail not shown here. Equal entries are not always repeated. Toxic doses and inconclusive results are not listed. How the source made its calls: active means survival T/C of 150% or more; inactive means T/C below 125% in these data. Residues, ends and D or L forms follow the SMILES beside them.

System: BDF1 mice, P388 leukemia ip, median survival T/C
Experiment: NCI In Vivo Anticancer Drug Screen. Data for tumor model P388 Leukemia (intraperitoneal) in B6D2F1 (BDF1) mice
Details: endpoint: median survival time, higher = longer survival
Summary of the method: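 T/C = treated-group survival ÷ vehicle-control survival; tumour transplanted into mice before dosing.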

[1] = dose: 6.25 mg/kg/injection, schedule: Q01DX009 (ip), vehicle: saline
[2] = dose: 12.5 mg/kg/injection, schedule: Q01DX009 (ip), vehicle: saline
[3] = dose: 25.0 mg/kg/injection, schedule: Q01DX009 (ip), vehicle: saline
[4] = dose: 50.0 mg/kg/injection, schedule: Q01DX009 (ip), vehicle: saline with Tween-80
[5] = dose: 100.0 mg/kg/injection, schedule: Q01DX009 (ip), vehicle: saline with Tween-80
[6] = dose: 200.0 mg/kg/injection, schedule: Q01DX009 (ip), vehicle: saline with Tween-80
[7] = dose: 100.0 mg/kg/injection, schedule: Q01DX009 (ip), vehicle: Klucel (hydroxypropylcellulose) (HPC)
[8] = dose: 100.0 mg/kg/injection, schedule: Q04DX003 (ip), vehicle: Klucel (hydroxypropylcellulose) (HPC)
[9] = dose: 200.0 mg/kg/injection, schedule: Q01DX009 (ip), vehicle: Klucel (hydroxypropylcellulose) (HPC)
[10] = dose: 200.0 mg/kg/injection, schedule: Q04DX003 (ip), vehicle: Klucel (hydroxypropylcellulose) (HPC)
[11] = dose: 400.0 mg/kg/injection, schedule: Q01DX009 (ip), vehicle: Klucel (hydroxypropylcellulose) (HPC)
[12] = dose: 400.0 mg/kg/injection, schedule: Q04DX003 (ip), vehicle: Klucel (hydroxypropylcellulose) (HPC)
[13] = dose: 25.0 mg/kg/injection, schedule: Q01DX009 (ip), vehicle: Klucel (hydroxypropylcellulose) (HPC)
[14] = dose: 100.0 mg/kg/injection, schedule: Q04DX003 (ip), vehicle: saline with Tween-80
[15] = dose: 200.0 mg/kg/injection, schedule: Q04DX003 (ip), vehicle: saline with Tween-80
[16] = dose: 400.0 mg/kg/injection, schedule: Q04DX003 (ip), vehicle: saline with Tween-80
[17] = dose: 400.0 mg/kg/injection, schedule: Q01DX009 (ip), vehicle: saline with Tween-80
[18] = dose: 50.0 mg/kg/injection, schedule: Q01DX009 (ip), vehicle: Klucel (hydroxypropylcellulose) (HPC)
[19] = dose: 50.0 mg/kg/injection, schedule: Q01DX009 (ip), vehicle: saline
[20] = dose: 50.0 mg/kg/injection, schedule: Q04DX003 (ip), vehicle: Klucel (hydroxypropylcellulose) (HPC)

Measured: T/C

OCC1OC(n2ccc3c2ncn2nnnc32)C(O)C1O (stereo not given)
inactive: [1] 97 % of control | [2] 94 % of control | dose: 12.5 mg/kg/injection, schedule: Q04DX003 (ip), vehicle: saline 96 % of control | [3] 94 % of control | dose: 25.0 mg/kg/injection, schedule: Q04DX003 (ip), vehicle: saline 104 % of control | dose: 50.0 mg/kg/injection, schedule: Q04DX003 (ip), vehicle: saline 111 % of control

O=C(O)CCS(=O)(=O)CCC(=O)O
inactive: [4] 100 % of control | [5] 100 % of control | [6] 100 % of control

CC(=O)OCCCc1ccccc1
inactive: [7] 109 % of control | [8] 110 % of control | [9] 104 % of control | [10] 100 % of control | [11] 95 % of control | [12] 110 % of control

CCOC1CC(C)C(C=O)C(C#N)(C#N)C1(C#N)C#N (stereo not given)
inactive: dose: 12.5 mg/kg/injection, schedule: Q01DX001 (ip), vehicle: saline with Tween-80 100 % of control | dose: 25.0 mg/kg/injection, schedule: Q01DX001 (ip), vehicle: saline with Tween-80 109 % of control | dose: 50.0 mg/kg/injection, schedule: Q01DX001 (ip), vehicle: saline with Tween-80 106 % of control

CCCCCCC[CH2][Sn](=[O])[CH2]CCCCCCC
inactive: dose: 3.12 mg/kg/injection, schedule: Q01DX009 (ip), vehicle: saline 120 % of control | [1] 100 % of control | [2] 115 % of control | dose: 22.0 mg/kg/injection, schedule: Q04DX003 (ip), vehicle: other 109 % of control | [13] 86 % of control | dose: 33.0 mg/kg/injection, schedule: Q04DX003 (ip), vehicle: Klucel (hydroxypropylcellulose) (HPC) 100 % of control and 114 % of control | dose: 33.0 mg/kg/injection, schedule: Q04DX003 (ip), vehicle: other 118 % of control | dose: 50.0 mg/kg/injection, schedule: Q04DX003 (ip), vehicle: other 100 % of control | [8] 90 % of control

O=[N+]([O-])c1cccc(OCCOc2ccccc2)c1
inactive: [14] 100 % of control | [15] 115 % of control | [16] 105 % of control

CC(=O)OC1CCC2(C)C3=C(CCC2C1)C1C(OC(=O)c2ccccc2[N+](=O)[O-])CC(c2ccc(=O)oc2)C1(C)CC3 (stereo not given)
inactive: dose: 0.25 mg/kg/injection, schedule: Q01DX009 (ip), vehicle: Klucel (hydroxypropylcellulose) (HPC) 102 % of control | dose: 0.5 mg/kg/injection, schedule: Q01DX009 (ip), vehicle: Klucel (hydroxypropylcellulose) (HPC) 111 % of control | dose: 1.0 mg/kg/injection, schedule: Q01DX009 (ip), vehicle: Klucel (hydroxypropylcellulose) (HPC) 100 % of control

CN(C)c1ccc2cc(S(=O)(=O)O)cc(O)c2c1
inactive: [5] 95 % of control | [6] 91 % of control | [17] 91 % of control

Cc1ccc(C(=O)CCCCl)c(C)c1
inactive: [14] 109 % of control | [15] 109 % of control | [16] 118 % of control

CC1NC(=O)C2CCCN2C(=O)C2CCCN2C(=O)C(C(C)C)NC(=O)C(Cc2ccccc2)NC(=O)C(Cc2ccccc2)NC(=O)C2CCCN2C(=O)C2CCCN2C(=O)C(Cc2ccccc2)NC(=O)C(Cc2ccccc2)NC1=O (stereo not given) (cyclo(AFFPPFFVPP); configuration not given here)
inactive: dose: 0.5 mg/kg/injection, schedule: Q01DX009 (ip), vehicle: saline 101 % of control | dose: 1.0 mg/kg/injection, schedule: Q01DX009 (ip), vehicle: saline 104 % of control | dose: 2.0 mg/kg/injection, schedule: Q01DX009 (ip), vehicle: saline 104 % of control

O=C(OC(=O)c1cccc(-c2ccccc2)c1)c1cccc(-c2ccccc2)c1
inactive: [18] 104 % of control | [7] 95 % of control | [9] 95 % of control

CCCNCc1c2c(O)c3c(O)c(C)c4c(c3c1O)C(=O)C(C)(O/C=C/C(OC)C(C)C(OC(C)=O)C(C)C(O)C(C)C(O)C(C)/C=C/C=C(/C)C(=O)N2)O4 (stereo not given)
inactive: [4] 90 % of control | [5] 100 % of control

NC(=O)OCCCCCl
inactive: [19] 110 % of control | dose: 100.0 mg/kg/injection, schedule: Q01DX009 (ip), vehicle: saline 107 % of control | dose: 200.0 mg/kg/injection, schedule: Q01DX009 (ip), vehicle: saline 100 % of control

O=c1c(O)c(-c2ccccc2)oc2ccccc12
inactive: [7] 95 % of control | [8] 91 % of control and 103 % of control | [9] 100 % of control | [10] 91 % of control and 92 % of control | [11] 108 % of control | [12] 95 % of control and 96 % of control

CC1(C)OCC2OC3(C(=O)O)OC(C)(C)OC3C2O1 (stereo not given)
inactive: dose: 25.0 mg/kg/injection, schedule: Q01DX009 (ip), vehicle: water 100 % of control | dose: 50.0 mg/kg/injection, schedule: Q01DX009 (ip), vehicle: water 96 % of control | dose: 100.0 mg/kg/injection, schedule: Q01DX009 (ip), vehicle: water 101 % of control | dose: 200.0 mg/kg/injection, schedule: Q01DX009 (ip), vehicle: water 99 % of control | dose: 400.0 mg/kg/injection, schedule: Q01DX009 (ip), vehicle: water 101 % of control

CCOC(=S)N/N=C(\C)CC
inactive: dose: 2.5 mg/kg/injection, schedule: Q01DX009 (ip), vehicle: saline with Tween-80 93 % of control | dose: 5.0 mg/kg/injection, schedule: Q01DX009 (ip), vehicle: saline with Tween-80 93 % of control

CCOC(=O)CNC(=O)N(CC)C12CC3CC(CC(C3)C1)C2
inactive: [7] 94 % of control | dose: 130.0 mg/kg/injection, schedule: Q01DX009 (ip), vehicle: Klucel (hydroxypropylcellulose) (HPC) 111 % of control | [9] 100 % of control | dose: 300.0 mg/kg/injection, schedule: Q01DX009 (ip), vehicle: Klucel (hydroxypropylcellulose) (HPC) 109 % of control | [11] 122 % of control

O=C1CCCCCC1Cc1cc(O)c(CC2CCCCCC2=O)cc1O (stereo not given)
inactive: [4] 96 % of control | [6] 97 % of control

CC(C)(C)c1cc([N+](=O)[O-])cc(C(C)(C)C)c1O
inactive: [13] 90 % of control and 100 % of control | dose: 25.0 mg/kg/injection, schedule: Q04DX003 (ip), vehicle: Klucel (hydroxypropylcellulose) (HPC) 100 % of control | [18] 96 % of control and 109 % of control | [20] 86 % of control and 88 % of control | [7] 95 % of control and 96 % of control | [8] 86 % of control and 88 % of control | [10] 92 % of control

O=S(=O)(OCCCl)C(F)(F)F
inactive: dose: 1.56 mg/kg/injection, schedule: Q01DX009 (ip), vehicle: saline with Tween-80 119 % of control | dose: 3.12 mg/kg/injection, schedule: Q01DX009 (ip), vehicle: saline with Tween-80 107 % of control | dose: 6.25 mg/kg/injection, schedule: Q01DX009 (ip), vehicle: saline with Tween-80 120 % of control

FC(F)(F)c1ccc2c(c1)N(CCCN1CCN(CCN3CCCCC3)CC1)c1ccccc1S2
inactive: [2] 118 % of control | [3] 115 % of control | [19] 86 % of control

Cc1ccc(N2C(=O)CC(Sc3ccccc3N)C2=O)cc1 (stereo not given)
inactive: [18] 105 % of control | dose: 100.0 mg/kg/injection, schedule: Q01DX001 (ip), vehicle: saline 100 % of control | [7] 105 % of control | [8] 95 % of control | dose: 200.0 mg/kg/injection, schedule: Q01DX001 (ip), vehicle: saline 90 % of control | [9] 105 % of control | [10] 87 % of control | dose: 400.0 mg/kg/injection, schedule: Q01DX001 (ip), vehicle: saline 90 % of control

CN(C)CCC(=O)O
inactive: [5] 100 % of control | [6] 95 % of control | [17] 90 % of control

O=C1c2ccccc2CCC12OC2c1ccccc1[N+](=O)[O-] (stereo not given)
inactive: [20] 110 % of control | [8] 100 % of control | [10] 110 % of control

CS(=O)CC(O)(c1cccs1)C1CC1 (stereo not given)
inactive: [4] 103 % of control | [5] 117 % of control | [6] 98 % of control
